Patent publication US20060013770A1, “Method for screening for compounds as potential sedatives or anxiolytics” (priority 2002, published 2006)

Tests used:
HPA axis [1] = test: Time course of the effect on the HPA axis (plasma ACTH and corticosterone), FIG. 2; type: in vivo; details: 10 mg/kg
Experimental: One example of measuring the activity of the HPA axis is as follows: The animal Is treated with the NCE and sacrificed within an hour. As the release of ACTH occurs within an hour after the stimulation of the CRF neurons, animals are sacrificed at t=0, 5, 15, 30 and 60 minutes after administration. Trunk blood is taken, serum separated and levels of ACTH is measured in the serum by specific radioimmunoassay. Similarly, the level of glucocortcosteroids are determined at t=0, 30, 60, and 120 minutes (the response occurs somewhat later than ACTH) using a radioimmunoassay.

HPA axis [2] = test: Effect on plasma corticosterone (HPA axis activity) in mice, radioimmunoassay; type: in vivo, NMRI mice
HPA axis [3] = details: at the level of the hypothalamic CRF neurons; cited from earlier work
[4] = i.p., 60 minutes after administration

For `Cc1ccc(-c2nc3ccc(C)cn3c2CC(=O)N(C)C)cc1` [Zolpidem, zolpidem], the “time course of plasma ACTH and corticosterone” value (HPA axis [1]) was “The rise in plasma ACTH precedes the rise in corticosterone”, the “effect on plasma corticosterone at 25 mg/kg compared with 12.5 mg/kg” value (HPA axis [2]; i.p., 25 mg/kg, 60 minutes after administration) was “not further increased” and the “dose at which the effect on plasma corticosterone reached a maximum” value (HPA axis [2]; [4]) was 12.5 mg/kg. For the same molecule, the “doses from which plasma corticosterone is significantly increased” value (HPA axis [2]; [4]) was ≥ 0.5 mg/kg and the “effect on plasma corticosterone” value (HPA axis [2]; i.p., 60 minutes after administration, increasing doses) was “significantly and dose-dependently increased plasma corticosterone”.

For `CN1C(=O)CN=C(c2ccccc2)c2cc(Cl)ccc21` [Diazepam], the “effect on the HPA axis” value (HPA axis [3]) is listed as “slightly stimulate the HPA axis”.

In the case of `Cn1ncnc1COc1nn2c(-c3cc(F)ccc3F)nnc2cc1C(C)(C)C` [L-838,417], the “effect on plasma corticosterone” value (HPA axis [2]; 12.5 mg/kg, 2 h after administration) is reported as “no effects on plasma corticosterone was observed” and the effect on corticosterone (HPA axis [2]; i.p., doses up to 12.5 mg/kg, 60 minutes after administration) is reported as “no effect”.
